# In patent publication US20260263547A1, “COMPOSITION FOR PREVENTING, AMELIORATING, OR TREATING ARTHRITIS, CONTAINING POTENTILLA CHINENSIS EXTRACT OR APIGENIN-7-O-GLUCURONIDE AS ACTIVE INGREDIENT” (BELABELBIO INC., priority 2023, published 2026):
# Experiments:
# [1] = test system: COX-2 mRNA; assay: LPS-induced COX-2 mRNA expression in RAW264.7 macrophages (real-time PCR); format: cell-based; conditions: LPS 500 ng/mL, 24 hours, extract 50, 100, 200 ppm, apigenin-7-O-glucuronide 50, 100, 200 μM
# Protocol: (§1) To confirm the inhibitory efficacy of the extract of Potentilla chinensis from Example 1 and apigenin-7-O-glucuronide from Example 2 on LPS-induced COX-2 mRNA expression, the expression level of COX-2 mRNA was measured using real-time polymerase chain reaction (PCR). Specifically, RAW264.7 macrophages were obtained from the American Type Culture Collection (ATCC, MD, USA) and cultured in DMEM medium containing 10% FBS and 1% antibiotic-antimycotic under 5% CO2 at 37° C. The cells were seeded into 6-well plates at a density of 8.0×10^5 cells/2.0 mL/well and allowed to adhere for 24 hours, then treated with LPS (500 ng/mL) in DMEM to induce inflammation. The extract of Potentilla chinensis from Example 1 was treated at concentrations of 50, 100, and 200 ppm, and apigenin-7-O-glucuronide from Example 2 was treated at concentrations of 50, 100, and 200 μM, followed by incubation for 24 hours. After 24 hours, COX-2 mRNA was extracted from the cells, synthesized into cDNA, and quantitative real-time PCR was performed using specific primers to evaluate the expression level of COX-2.
# [2] = test system: Collagen Type II Alpha 1; assay: IL-1β-induced Collagen Type II Alpha 1 synthesis in SW-1353 chondrocytes (ELISA); format: cell-based, Human; conditions: IL-1β 40 ng/ml, 24 hours, extract 50, 100, 200 ppm, apigenin-7-O-glucuronide 50, 100, 200 μM
# Protocol: To evaluate the stimulatory efficacy of the extract of Potentilla chinensis from Example 1 and apigenin-7-O-glucuronide from Example 2 on IL-1β-induced Collagen Type II Alpha 1 synthesis in chondrocytes, the secretion of Collagen Type II Alpha 1 was measured using a Human Collagen II Alpha 1 ELISA kit (NBP2-75853, Novus, USA). Specifically, SW-1353 chondrocytes were obtained from the American Type Culture Collection (ATCC, MD, USA) and cultured in DMEM medium containing 10% FBS and 1% antibiotic-antimycotic under 5% CO2 at 37° C. The cells were seeded into 6-well plates at a density of 2.0×10^5 cells/2.0 mL/well and allowed to adhere for 24 hours, then treated with IL-1β (40 ng/ml) in DMEM. The extract of Potentilla chinensis from Example 1 was treated at concentrations of 50, 100, and 200 ppm, and apigenin-7-O-glucuronide from Example 2 was treated at concentrations of 50, 100, and 200 μM, followed by incubation for 24 hours. After 24 hours, the amount of Collagen II Alpha 1 in the supernatant was quantified using the ELISA kit, and the results are shown in FIGS. 9A and 9B.
# [3] = test system: nitric oxide (NO) production; assay: LPS-induced nitric oxide (NO) production in RAW264.7 macrophages (Griess reagent); format: cell-based; conditions: LPS 500 ng/ml, 24 hours, extract 50, 100, 200 ppm, apigenin-7-O-glucuronide 50, 100, 200 μM
# Protocol: To confirm the NO-reducing effect of the extract of Potentilla chinensis from Example 1 and apigenin-7-O-glucuronide from Example 2, an inflammatory response was induced with LPS and subsequent changes in NO were measured. Specifically, RAW264.7 macrophages were obtained from the American Type Culture Collection (ATCC, MD, USA) and cultured in DMEM (Dulbecco's Modified Eagle's Medium) containing 10% FBS and 1% antibiotic-antimycotic under 5% CO2 at 37° C. The cells were seeded into 6-well plates at a density of 8.0×10^5 cells/1.5 mL/well and allowed to adhere for 24 hours, then treated with LPS (500 ng/ml) to induce inflammation. The extract of Potentilla chinensis from Example 1 was added at concentrations of 50, 100, and 200 ppm, and apigenin-7-O-glucuronide from Example 2 was added at concentrations of 50, 100, and 200 μM, followed by incubation for 24 hours. Next, 100 μL of the culture supernatant was transferred to a 96-well plate, mixed with 100 μL of Griess reagent (0.1% N-(1-naphtyl)ethylenediamine, 1% sulfanilamide), and reacted for 10 minutes. The absorbance of the resulting azo-derivative was measured at 540 nm using a microplate reader (BioTek, Vermont, USA). The measured absorbance was converted into nitrite concentration using a standard curve prepared with sodium nitrite dilutions, and the amount of NO produced was calculated.
# [4] = test system: MMP-9; assay: PMA-induced MMP-9 secretion in SW-1353 chondrocytes (ELISA); format: cell-based, Human; conditions: PMA 50 ng/mL, 24 hours, apigenin-7-O-glucuronide 50, 100, 200 μM
# Protocol: To evaluate the inhibitory efficacy of apigenin-7-O-glucuronide from Example 2 on PMA-induced MMP-9 production in chondrocytes, the amount of MMP-9 secreted was measured using a Human MMP-9 ELISA kit (ab246539, Abcam, USA). Specifically, SW-1353 chondrocytes were obtained from the American Type Culture Collection (ATCC, MD, USA) and cultured in DMEM medium containing 10% FBS and 1% antibiotic-antimycotic under 5% CO2 at 37° C. The cells were seeded into 6-well plates at a density of 2.0×10^5 cells/2.0 mL/well and allowed to adhere for 24 hours, then treated with PMA (50 ng/mL) in DMEM. The extract of Potentilla chinensis from Example 1 was treated at concentrations of 50, 100, and 200 ppm, and apigenin-7-O-glucuronide from Example 2 was treated at concentrations of 50, 100, and 200 μM, followed by incubation for 24 hours. After 24 hours, the amount of MMP-1 in the supernatant was quantified using the ELISA kit, and the results are shown in FIG. 8.
# [5] = test system: IL-1β mRNA; assay: LPS-induced IL-1β mRNA expression in RAW264.7 macrophages (real-time PCR); format: cell-based; conditions: LPS 500 ng/mL, 24 hours, extract 50, 100, 200 ppm, apigenin-7-O-glucuronide 50, 100, 200 μM
# Protocol: as §1, with “Specifically,” for “To confirm the inhibitory efficacy of the extract of Potentilla chinensis from Example 1 and apigenin-7-O-glucuronide from Example 2 on LPS-induced COX-2 mRNA expression, the expression level of COX-2 mRNA was measured using real-time polymerase chain reaction (PCR). Specifically,”, “cells/1.5” for “cells/2.0”, “IL-1β” for “COX-2”, “IL-1β.” for “COX-2.”
# [6] = test system: MMP-1; assay: PMA-induced MMP-1 secretion in SW-1353 chondrocytes (ELISA); format: cell-based, Human; conditions: PMA 50 ng/mL, 24 hours, extract 50, 100, 200 ppm, apigenin-7-O-glucuronide 50, 100, 200 μM
# Protocol: To evaluate the inhibitory efficacy of the extract of Potentilla chinensis from Example 1 and apigenin-7-O-glucuronide from Example 2 on PMA-induced MMP-1 production in chondrocytes, the amount of MMP-1 secreted was measured using a Human MMP-1 ELISA kit (ab100603, Abcam, USA). Specifically, SW-1353 chondrocytes were obtained from the American Type Culture Collection (ATCC, MD, USA) and cultured in DMEM medium containing 10% FBS and 1% antibiotic-antimycotic under 5% CO2 at 37° C. The cells were seeded into 6-well plates at a density of 2.0×10^5 cells/2.0 mL/well and allowed to adhere for 24 hours, then treated with PMA (50 ng/mL) in DMEM. The extract of Potentilla chinensis from Example 1 was treated at concentrations of 50, 100, and 200 ppm, and apigenin-7-O-glucuronide from Example 2 was treated at concentrations of 50, 100, and 200 μM, followed by incubation for 24 hours. After 24 hours, the amount of MMP-1 in the supernatant was quantified using the ELISA kit, and the results are shown in FIGS. 6A and 6B.
structure (smiles),measurement,setting,value
O=C(O)[C@H]1O[C@@H](Oc2cc(O)c3c(=O)cc(-c4ccc(O)cc4)oc3c2)[C@H](O)[C@@H](O)[C@@H]1O [apigenin-7-O-glucuronide],LPS-induced COX-2 mRNA expression,[1],significantly inhibited COX-2 mRNA expression
same,IL-1β-induced Collagen Type II Alpha 1 synthesis,[2],significantly increased Collagen Type II Alpha 1 synthesis in a concentration-dependent manner
same,LPS-induced NO production,[3],significantly inhibited NO production in a concentration-dependent manner
same,PMA-induced MMP-9 secretion,[4],significantly inhibited MMP-9 secretion in a concentration-dependent manner
same,LPS-induced IL-1β mRNA expression,[5],significantly inhibited IL-1β mRNA expression in a concentration-dependent manner
same,PMA-induced MMP-1 secretion,[6],significantly inhibited MMP-1 secretion in a concentration-dependent manner
